Here are results for two compounds from patent US20090270496A1, “ANTIFUNGAL COMPOUNDS” (priority 2007, published 2009).

pEC50: −log10 of the molar value.

The test system of one data set is HL-60 cells. As to conditions: in the presence but not in the absence of extracellular Ca2+; cited from earlier work.
The conditions of data set [1]: cited from earlier work.
For data set [2], the system named is cytoplasmic Ca2+ in S. cerevisiae cells (FY70 [pEVP11/AEQ]). The data set is described as follows: Aequorin luminescence, yeast cytoplasmic Ca2+. Note: monitored 3.5 min. As to conditions: 50 μM added at t=30 sec, monitored […]. It counts as cell-based, Saccharomyces cerevisiae.
Description: Cells were transformed with pEVP11/AEQ, which constitutively expresses apoaequorin directed to the cytoplasm (Batiza et al., 1996) Transformed cells were grown to mid-exponential phase in SD-leu to maintain the plasmid. 1.5×10^7 cells were pelleted and resuspended in fresh SD-leu medium containing 5.9 μM coelenterazine for 1 hour to allow the cofactor to diffuse into cells and bind the apoaequorin. Cells were pelleted again and resuspended in fresh SD-leu (“SD” buffer) and 2.5×10^6 cells per well aliquoted to a microtiter plate for luminescence measurement. Luminescence was measured in an EG&G Berthold luminometer using Winglow monitoring and analysis software.
S. cerevisiae cells were prepared for aequorin assays as just described.
The target of the next data set is Gi2 (Homo sapiens, UniProt P04899). As to conditions: reconstituted Gi2, in vitro; read-out: EC50, activation of GTPase; cited from earlier work.
The conditions of data set [3]: during chronic treatment; cited from earlier work.

Chain of Gi2 (P04899 2-355 limits assumed): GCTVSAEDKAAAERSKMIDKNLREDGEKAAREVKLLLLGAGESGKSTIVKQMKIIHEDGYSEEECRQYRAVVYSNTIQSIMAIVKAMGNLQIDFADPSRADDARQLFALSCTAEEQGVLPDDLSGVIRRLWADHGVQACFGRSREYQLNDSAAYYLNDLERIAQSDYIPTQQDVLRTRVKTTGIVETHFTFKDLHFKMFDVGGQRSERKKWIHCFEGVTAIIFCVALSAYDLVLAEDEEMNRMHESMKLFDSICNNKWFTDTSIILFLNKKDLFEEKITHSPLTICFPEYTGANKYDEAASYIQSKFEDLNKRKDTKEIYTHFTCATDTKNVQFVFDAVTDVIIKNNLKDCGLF

On to `CCCCc1oc2ccccc2c1C(=O)c1cc(I)c(OCCN(CC)CC)c(I)c1` [Amiodarone, amiodarone], for which the “cytosolic Ca2+ concentration” value with HL-60 cells was “increased”. For the same compound, in data set [1] (especially during loading doses), the “ataxia, patients affected” value was 20-40%. The “pulmonary fibrosis or pneumonitis fatal, cases” value in data set [1] (human, in vivo) is reported as “about 10%”. The “increase in RLUs (cytoplasmic Ca2+)” value in data set [2] was “immediate and very large increase”; in data set [2] (listed as amiodarone), “immediate and huge increase”. In addition, the pEC50 at Gi2 is 4.30.
Turning to `CCCCc1oc2ccccc2c1C(=O)c1cc(I)c(OCCNCC)c(I)c1` [desethylamiodarone], the “plasma ratio of metabolite to parent compound” value in data set [3] is “approximately one”.
